# Data: US20190070139A1, “AGENT FOR IMPROVING PHYSICAL FITNESS” (AJINOMOTO CO., INC, priority 2016, published 2019)
# Legend:
# [1] = tested on: glycogen in gastrocnemius muscle; assay: Amount of glycogen in gastrocnemius muscle; type: in vivo, mouse; details: Experimental Example 1; next day after 3-day continuous exercise; Ex+Cyt (2 wt % cystine diet) vs Ex
# Method: 6-Week-old male CD2F1 mice (CHARLES RIVER LABORATORIES JAPAN, INC.) were divided into 3 groups of a group with ingestion of a normal diet (AIN-93G composition) and without exercise (non-exercise group), a group with ingestion of a normal diet and with exercise (exercise group), and a group with ingestion of a diet containing 2 wt % cystine (free form), which was prepared by replacing casein in the normal diet with cystine, and with exercise (exercise+2% cystine group). Each group ingested a test diet (normal diet or normal diet containing 2 wt % cystine) for 8 days. Thereafter, the exercise group and the exercise+2% cystine group were made to run on a treadmill until exhaustion for 3 consecutive days, and the running time until then was measured (FIG. 1). The non-exercise group was fasted and deprived of water during running of the other two groups. On the next day after completion of the 3-day running, the muscle of the mice in each group was collected, and the amount of glycogen in the muscle was measured. The amount of glycogen in muscle was measured as follows. […] Glucose in this solution was detected and quantified using “glucose CII-Test Wako” (manufactured by Wako Pure Chemical Industries, Ltd.). […] The groups with exercise were forced to run in a treadmill until exhaustion for 2 consecutive days and the running time then was measured. […]
# [2] = tested on: male CD2F1 mice; assay: Treadmill running until exhaustion (endurance capacity); type: in vivo, mouse
# Method: 6-Week-old male CD2F1 mice (CHARLES RIVER LABORATORIES JAPAN, INC.) were divided into 3 groups of a group with ingestion of a normal diet (AIN-93G composition) and without exercise (non-exercise group), a group with ingestion of a normal diet and with exercise (exercise group), and a group with ingestion of a diet containing 2 wt % cystine (free form), which was prepared by replacing casein in the normal diet with cystine, and with exercise (exercise+2% cystine group). Each group ingested a test diet (normal diet or normal diet containing 2 wt % cystine) for 8 days. Thereafter, the exercise group and the exercise+2% cystine group were made to run on a treadmill until exhaustion for 3 consecutive days, and the running time until then was measured (FIG. 1). […] On the next day after completion of the 3-day running, the muscle of the mice in each group was collected, and the amount of glycogen in the muscle was measured. […] Thereafter, the mice were forced to run until exhaustion under the exercise conditions similar to those in Experimental Example 1, and the running time then was measured. […] The next day, the mice were made to run until exhaustion under the exercise conditions similar to those in Experimental Example 1, and the running time then was measured. The amount of increase in the running time was calculated as an endurance-improving effect. […]
smiles,measurement,setting,value
"NC(CSSCC(N)C(=O)O)C(=O)O (stereo not drawn) [cystine, 3,3′-dithiobis(2-aminopropanoic acid)]",amount of glycogen in gastrocnemius muscle,[1],further significantly (P<0.05) increased
same,amount of increase in the running time by exercise,"[2]; Experimental Example 1, diet containing 2 wt % cystine for 8 days, then running until exhaustion for 3 consecutive days, Ex+Cyt vs Ex (normal diet)",significantly (P<0.05 or P<0.01) higher
same,amount of increase in the running time,"[2]; Experimental Example 2, 2 wt % cystine diet given for one day after exercise on day 1, day 2 minus day 1, Ex+Cyt vs Ex",tended to be higher
